The target in one experiment is T1, human DP1 receptor (Homo sapiens, UniProt Q13258).
T1 construct: tissue Biological Specialty Corporation; host or cells: human platelets, membrane preparation
T1 sequence (Q13258 1-359): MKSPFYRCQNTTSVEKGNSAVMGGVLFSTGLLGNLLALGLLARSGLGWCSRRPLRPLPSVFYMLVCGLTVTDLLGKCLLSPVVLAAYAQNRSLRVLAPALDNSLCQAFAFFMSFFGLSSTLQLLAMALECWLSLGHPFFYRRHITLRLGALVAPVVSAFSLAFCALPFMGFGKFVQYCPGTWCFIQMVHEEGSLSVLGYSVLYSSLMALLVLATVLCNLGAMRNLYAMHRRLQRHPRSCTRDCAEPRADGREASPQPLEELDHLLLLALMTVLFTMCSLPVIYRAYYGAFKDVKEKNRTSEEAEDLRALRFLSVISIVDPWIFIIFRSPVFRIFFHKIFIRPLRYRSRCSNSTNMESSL
As to the kind of experiment: DP1 binding assay ([3H]BWA868C radioligand). The following applies: human platelet membranes, 2 nM [3H]BWA868C; read-out: hDP1. Here is the method: The ability of a compound to bind to the human DP1 receptor was evaluated via a radioligand membrane binding assay using the DP1 selective synthetic ligand [^3H]BWA868C. Packed human platelets (Biological Specialty Corporation), were resuspended in 6 volumes of Hepes/HBSS buffer (10 mM Hepes, 1 mM DTT in Hanks Balanced Salt Solution (HBSS), lysed and centrifuged at 75,000×g to pellet the membranes. Membranes were resuspended in Hepes/HBSS buffer to approximately 12 mg protein/ml. Membranes (20 μg protein/well) are incubated in 96-well plates with 2 nM [^3H]BWA868C and test compound in Assay Buffer (50 mM Hepes, 10 mM MnCl2, 1 mM EDTA, plus or minus 0.2% human serum albumin, pH 7.4) for 60 minutes at room temperature. The reactions are terminated by rapid filtration through Whatman GF/C glass fibre filter plates. The filter plates were pre-soaked in 0.33% polethylenimine for 30 minutes at room temperature then washed in Wash Buffer (50 mM Hepes, 0.5 M NaCl pH 7.4) prior to harvesting. After harvesting, the filter plates are washed 3 times with 1 ml cold Wash Buffer then dried. Scintillant is then added to the plates and the radioactivity retained on the filters is determined on a Packard TopCount (Perkin Elmer). Specific binding is determined as total radioactive binding minus non-specific binding in the presence of 10 μM BW A868C. IC50s were determined using GraphPad prism analysis of drug titration curves.

A further experiment has as its target T2, human DP2 receptor (Homo sapiens, UniProt Q9Y5Y4).
T2 construct: expressed in transfected cells
T2 sequence (Q9Y5Y4 1-395): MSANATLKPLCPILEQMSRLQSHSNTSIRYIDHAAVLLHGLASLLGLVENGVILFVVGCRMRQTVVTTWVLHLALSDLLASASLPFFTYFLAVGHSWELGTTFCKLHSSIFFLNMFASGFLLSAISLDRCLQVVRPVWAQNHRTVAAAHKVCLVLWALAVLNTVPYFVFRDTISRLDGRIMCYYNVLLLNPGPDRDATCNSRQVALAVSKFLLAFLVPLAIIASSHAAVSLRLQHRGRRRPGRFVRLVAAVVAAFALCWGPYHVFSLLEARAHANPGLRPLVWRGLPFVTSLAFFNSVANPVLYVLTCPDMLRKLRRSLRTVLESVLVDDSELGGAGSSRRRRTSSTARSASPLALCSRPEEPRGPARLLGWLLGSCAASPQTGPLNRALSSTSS
As to the kind of experiment: DP2/CRTH2 binding assay ([3H]PGD2 radioligand). The note with it: membranes of HEK293 cells expressing recombinant human DP2, 1 nM [3H]PGD2; read-out: hDP2. Here is the method: The ability of a compound to bind to the human DP2 receptor is assessed via a radioligand binding assay using [^3H]PGD2. HEK293 cells stably expressing recombinant human DP2 are resuspended in 10 mM Hepes, 7.4 containing 1 mM DTT, lysed and centrifuged at 75,000×g to pellet the membranes. The membranes are resuspended in 10 mM Hepes, 7.4 containing 1 mM DTT and 10% glycerol to approximately 5 mg protein/ml. Membranes (2-10 μg protein/well) are incubated in 96-well plates with 1 nM [^3H]PGD2 and test compound in Assay Buffer (50 mM Hepes, 10 mM MnCl2, 1 mM EDTA, plus or minus 0.2% human serum albumin, pH 7.4) for 60 minutes at room temperature. The reactions are terminated by rapid filtration through Whatman GF/C glass fibre filter plates. The filter plates were pre-soaked in 0.33% polythylenimine for 30 minutes at room temperature then washed in Wash Buffer (50 mM Hepes, 0.5 M NaCl pH 7.4) prior to harvesting. After harvesting, the filter plates are washed 3 times with 1 ml cold Wash Buffer then dried. Scintillant is then added to the plates and the radioactivity retained on the filters is determined on a Packard TopCount (Perkin Elmer). Specific binding is determined as total radioactive binding minus non-specific binding in the presence of 10 μM PGD2. IC50s were determined using GraphPad prism analysis of drug titration curves.

Turning to `COc1ccc(CC(=O)O)cc1Oc1ccc(NC(=O)c2ccccc2F)cc1CSC(C)(C)C` [Compound 64, {3-[2-tert-Butylsulfanylmethyl-4-(2-fluoro-benzoylamino)-phenoxy]-4-methoxy-phenyl}-acetic acid], the IC50 on human DP1 receptor and at human DP2 receptor was under 300 nM throughout. For `COc1ccc(CC(=O)O)cc1Oc1ccc(C(=O)NCCc2ccc(F)cc2)cc1CSC(C)C` [Compound 27, (3-{4-[2-(4-Fluoro-phenyl)-ethylcarbamoyl]-2-isopropylsulfanylmethyl-phenoxy}-4-methoxy-phenyl)-acetic acid], the IC50 on human DP2 receptor is under 300 nM. On to `COc1ccc(NC(=O)c2ccc(Oc3cc(CC(=O)O)ccc3OC)c(CSC(C)(C)C)c2)cn1` [Compound 43, {3-[2-tert-butylsulfanylmethyl-4-(6-methoxy-pyridin-3-ylcarbamoyl)-phenoxy]-4-methoxy-phenyl}-acetic acid], for which the IC50 on human DP2 receptor was under 300 nM. In the case of `Cc1ccc(CC(=O)O)cc1Oc1ccc(NC(=O)C(C)(C)C)cc1CSCC(F)(F)F` [Compound 51, {3-[4-(2,2-Dimethyl-propionylamino)-2-(2,2,2-trifluoro-ethylsulfanylmethyl)-phenoxy]-4-methyl-phenyl}-acetic acid], on human DP2 receptor, the IC50 was under 300 nM. Same read-out and setting: then `COc1ccc(CC(=O)O)cc1Oc1ccc(NC(=O)C(C)C)cc1CSCC(F)(F)F` [Compound 15, {3-[4-isobutyrylamino-2-(2,2,2-trifluoro-ethylsulfanylmethyl)-phenoxy]-4-methoxy-phenyl}-acetic acid], with under 300 nM; and `COc1ccc(CC(=O)O)cc1Oc1ccc(C(=O)NC(C)(C)C)cc1CSC(C)(C)C` [Compound 39, [3-(4-tert-Butylcarbamoyl-2-tert-butylsulfanylmethyl-phenoxy)-4-methoxy-phenyl]-acetic acid], with under 300 nM. `COc1ccc(CC(=O)O)cc1Oc1ccc(C(=O)NC(C)(C)Cc2ccc(F)cc2)cc1CSC(C)(C)C` [Compound 41, (3-{2-tert-butylsulfanylmethyl-4-[2-(4-fluoro-phenyl)-1,1-dimethyl-ethylcarbamoyl]-phenoxy}-4-methoxy-phenyl)-acetic acid]: at human DP2 receptor, the IC50 was under 300 nM. Same read-out and setting: then `COc1ccc(CC(=O)O)cc1Oc1ccc(C(=O)N2CCCCC2)cc1CSC(C)(C)C` [Compound 42, {3-[2-tert-butylsulfanylmethyl-4-(piperidine-1-carbonyl)-phenoxy]-4-methoxy-phenyl}-acetic acid], with over 1000 nM; and `COc1ccc(CC(=O)O)cc1Oc1ccc(NC(=O)c2ccc(Cl)cc2)cc1C[S+]([O-])C(C)C` (centres unmarked) [Compound 21, {3-[4-(4-Chloro-benzoylamino)-2-(propane-2-sulfinylmethyl)-phenoxy]-4-methoxy-phenyl}-acetic acid], with under 300 nM; and `COc1ccc(CC(=O)O)cc1Oc1ccc(NC(=O)C(C)(C)C)cc1CS(=O)(=O)CC(F)(F)F` [Compound 12, {3-[4-(2,2-Dimethyl-propionylamino)-2-(trifluoro-ethanesulfonylmethyl)-phenoxy]-4-methoxy-phenyl}-acetic acid], with under 300 nM. Still for that read-out and setting: the same measure for `COc1ccc(CC(=O)O)cc1Oc1ccc(NC(=O)c2ccc(Cl)cc2)cc1C[S+]([O-])c1ccccc1` (centres unmarked) [Compound 23, {3-[2-Benzenesulfinylmethyl-4-(4-chloro-benzoylamino)-phenoxy]-4-methoxy-phenyl}-acetic acid]: under 300 nM; for `COc1ccc(CC(=O)O)cc1Oc1ccc(C(=O)NCc2ccc(Cl)cc2)cc1CSC(C)C` [Compound 26, {3-[4-(4-Chloro-benzylcarbamoyl)-2-isopropylsulfanylmethyl-phenoxy]-4-methoxy-phenyl}-acetic acid]: under 300 nM; for `COc1ccc(CC(=O)O)cc1Oc1ccc(C(=O)NCC(F)(F)F)cc1CSC(C)(C)C` [Compound 44, {3-[2-tert-butylsulfanylmethyl-4-(2,2,2-trifluoro-ethylcarbamoyl)-phenoxy]-4-methoxy-phenyl}-acetic acid]: under 300 nM. The same measure, in the same setting: then `CC(C)SCc1cc(NC(=O)C(C)(C)C)ccc1Oc1cc(CC(=O)O)cc(C(F)(F)F)c1` [Compound 54, {3-[4-(2,2-Dimethyl-propionylamino)-2-isopropylsulfanylmethyl-phenoxy]-5-trifluoromethyl-phenyl}-acetic acid], with under 300 nM; and `COc1ccc(CC(=O)O)cc1Oc1ccc(NC(=O)C(C)(C)C)cc1CSC(C)C` [Compound 9, {3-[4-(2,2-Dimethyl-propionylamino)-2-isopropylsulfanylmethyl-phenoxy]-4-methoxy-phenyl}-acetic acid], with under 300 nM; and `CCNC(=O)c1ccc(Oc2cc(CC(=O)O)ccc2OC)c(CSC(C)C)c1` [Compound 25, [3-(4-Ethylcarbamoyl-2-isopropylsulfanylmethyl-phenoxy)-4-methoxy-phenyl]-acetic acid], with under 300 nM. Turning to `COc1ccc(CC(=O)O)cc1Oc1ccc(N(C)C(=O)C(C)(C)C)cc1CSCC(F)(F)F` [Compound 34, {3-[4-[(2,2-Dimethyl-propionyl)-methyl-amino]-2-(2,2,2-trifluoro-ethylsulfanylmethyl)-phenoxy]-4-methoxy-phenyl}-acetic acid], on human DP2 receptor, the IC50 is under 300 nM. The same measure, in the same setting: then `COc1ccc(CC(=O)O)cc1Oc1ccc(C(=O)N(C)C(C)C)cc1CSC(C)(C)C` [Compound 45, {3-[2-tert-butylsulfanylmethyl-4-(isopropyl-methyl-carbamoyl)-phenoxy]-4-methoxy-phenyl}-acetic acid], with over 1000 nM; and `COc1ccc(CC(=O)O)cc1Oc1ccc(C(=O)NCC(=O)c2ccccc2)cc1CSC(C)(C)C` [Compound 40, {3-[2-tert-butylsulfanylmethyl-4-(2-oxo-2-phenyl-ethylcarbamoyl)-phenoxy]-4-methoxy-phenyl}-acetic acid], with under 300 nM. Same read-out and setting: then `CC(C)(C)C(=O)Nc1ccc(Oc2cc(CC(=O)O)ccc2OC(F)F)c(CS(=O)(=O)CC(F)(F)F)c1` [Compound 50, {4-Difluoromethoxy-3-[4-(2,2-dimethyl-propionylamino)-2-(trifluoro-ethanesulfonylmethyl)-phenoxy]-phenyl}-acetic acid], with under 300 nM; and `COc1ccc(CC(=O)O)cc1Oc1ccc(NC(=O)C2CC2)cc1CSCC(F)(F)F` [Compound 14, {3-[4-(Cyclopropanecarbonyl-amino)-2-(2,2,2-trifluoro-ethylsulfanylmethyl)-phenoxy]-4-methoxy-phenyl}-acetic acid], with under 300 nM. Regarding `COc1ccc(CC(=O)O)cc1Oc1ccc(C(=O)NCC(C)(C)C)cc1CSC(C)(C)C` [Compound 46, {3-[2-tert-butylsulfanylmethyl-4-(2,2-dimethyl-propylcarbamoyl)-phenoxy]-4-methoxy-phenyl}-acetic acid], the IC50 on human DP2 receptor was in the range of 300 to 1000 nM.

Values taken from patent publication US20110144160A1, “Antagonists of Prostaglandin D2 Receptors” (Amira Pharmaceuticals, Inc., priority 2008, published 2011).
